Patent US9956205B2, “Polymorphic forms of 2-(5-bromo-4-(4-cyclopropylnaphthalen-1-yl)-4H-1,2,4-triazol-3-ylthio)acetic acid and uses thereof” (Ardea Biosciences, Inc., priority 2010, dated 2018)
Values after ≈ are worked out from the molar mass of the structure shown.

Experiments:
Format in all cases: physicochemical
[1] = Gravimetric vapor sorption (GVS) study; settings: at high humidity
Text: FIG. 12 illustrates a GVS study of form 1 and form 2. […] This property of decreased hygroscopicity greatly aids in the preparation of solid pharmaceutical dosage forms.

[2] = Drug substance stability of packaged solid; settings: 1 month, double LDPE bags inside HDPE container
Method: Form 2 of 2-(5-bromo-4-(4-cyclopropylnaphthalen-1-yl)-4H-1,2,4-triazol-3-ylthio)acetate was tested under various conditions to determine drug substance stability. […] Packaging was in a double low density polyethylene plastic bags inside a HDPE container.

[3] = Solid held in equilibrium with its saturated solvent solution at 60° C.; settings: saturated acetone solution, 6 days
[4] = Solubility in acetate buffer (25 mM, pH 5), assayed by HPLC; settings: 25 °C, pH 5, aqueous buffer, thermodynamic from solid; for solubility at 5 day: Day 5; for solubility at 7 day: Day 7
Method: (§1) Form 1 (˜25 mg) and acetate buffer (25 mM, pH 5, 4 mL), prepared with and without sodium chloride (ionic strength adjusted to=0.1M), were placed in a glass vial which was sealed and placed on a laboratory rotator in a 25° C. incubator. After 1, 5, and 7 days the samples were filtered and assayed by HPLC.
as §1, with “Form 2” for “Form 1”

Row | adsorption (hygroscopicity) by GVS [1] [% w/w] | degradation of packaged drug substance ([2]; 25° C.-60% RH) | degradation of packaged drug substance ([2]; 40° C.-75% RH) | outcome of equilibration with saturated solution [3] | solubility at 5 day ([4]; pH 5, NaCl (I = 0.1)) [µg/mL] | solubility at 7 day ([4]; pH 5, NaCl (I = 0.1)) [µg/mL] | solubility at 1 day ([4]; pH 5, No NaCl, Day 1) [µg/mL] | solubility at 5 day ([4]; pH 5, No NaCl) [µg/mL] | solubility at 7 day ([4]; pH 5, No NaCl) [µg/mL] | SMILES
1 | < 0.1 | No degradation | No degradation | – | – | – | – | – | – | O=C(O)CSc1nnc(Br)n1-c1ccc(C2CC2)c2ccccc12 [Form 2, 2-(5-bromo-4-(4-cyclopropylnaphthalen-1-yl)-4H-1,2,4-triazol-3-ylthio)acetic acid]
2 | < 0.2 | – | – | decomposition | 257 (≈ 635 µM) | 304 (≈ 753 µM) | 265 (≈ 656 µM) | 213 (≈ 528 µM) | 157 (≈ 388 µM) | O=C(O)CSc1nnc(Br)n1-c1ccc(C2CC2)c2ccccc12 [Form 1, 2-(5-bromo-4-(4-cyclopropylnaphthalen-1-yl)-4H-1,2,4-triazol-3-ylthio)acetic acid]
